Experimental data reported in patent US5138069A (E. I. Du Pont de Nemours and Company, priority 1988, dated 1992).
Like-named read-outs stand apart in the source and are kept apart here.

Experiments:
Renal Hypertensive Rats = assay: Antihypertensive effects in renal hypertensive rats; assay type: in vivo; settings: Rattus norvegicus; for minimal effective dose at 10 mg/kg / minimal effective dose at 100 mg/kg: Table 25; for minimal effective dose at 10 mg/kg / minimal effective dose at 3 mg/kg: intravenous; for minimal effective dose at 10 mg/kg: 10 mg/kg or less; for minimal effective dose at 100 mg/kg / minimal effective dose at 30 mg/kg: oral; for minimal effective dose at 100 mg/kg: 100 mg/kg or less; for minimal effective dose at 3 mg/kg / minimal effective dose at 30 mg/kg: Table 26
How it was run: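 Renal hypertensive rats (renin-driven AII elevation) dosed orally at 100 mg/kg and/or i.v. via jugular cannula at 10 mg/kg; a second set used 30 mg/kg oral and 3 mg/kg i.v. Arterial pressure recorded continuously via carotid cannula and compared with pretreatment levels.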

AII receptor = assay: Angiotensin II receptor binding (displacement of 3H-AII); settings: read-out: Angiotensin II Receptor Binding IC50, rat adrenal cortical microsomes, 2 nM 3H-AII, 1 hour, room temperature
Description: The assay was carried out according to the method described by [Glossmann et al., J. Biol. Chem., 249, 825 (1974)], but with some modifications. The reaction mixture contained rat adrenal cortical microsomes (source of AII receptor) in Tris buffer and 2 nM of ^3 H-AII with or without potential AII antagonist. This mixture was incubated for 1 hour at room temperature and the reaction was subsequently terminated by rapid filtration and rinsing through glass micro-fibre filter. Receptor-bound ^3 H-AII trapped in filter was quantitated by scintillation counting.
Compounds listed in Table 26 were tested in the same manner as described for Table 25, except that in the test for antihypertensive effects in renal hypertensive rats, the compounds were administered orally at 30 mg/kg and intravenously at 3 mg/kg.

| IC50 (AII receptor; Table 25) | IC50 (AII receptor; Table 26) | SMILES | minimal effective dose at 10 mg/kg (Renal Hypertensive Rats) | minimal effective dose at 100 mg/kg (Renal Hypertensive Rats) | minimal effective dose at 3 mg/kg (Renal Hypertensive Rats) | minimal effective dose at 30 mg/kg (Renal Hypertensive Rats) |
| --- | --- | --- | --- | --- | --- | --- |
| – | 0.13 µM | CCCc1nc(C(F)(F)F)c(CO)n1Cc1ccc(-c2ccccc2C(=O)O)cc1 [Example 124A] | – | – | < 3 mg/kg | < 30 mg/kg |
| – | 0.05 µM | CCCc1nc(C(F)(F)C(F)(F)F)c(CO)n1Cc1ccc(-c2ccccc2C(=O)O)cc1 [Example 124B] | – | – | < 3 mg/kg | < 30 mg/kg |
| – | 0.006 µM | CCCc1nc(C(F)(F)F)c(CO)n1Cc1ccc(-c2ccccc2-c2nn[nH]n2)cc1 [Example 124D] | – | – | < 3 mg/kg | < 30 mg/kg |
| – | 0.007 µM | CCCCc1nc(C(F)(F)C(F)(F)F)c(CO)n1Cc1ccc(-c2ccccc2-c2nn[nH]n2)cc1 [Example 124E] | – | – | < 3 mg/kg | < 30 mg/kg |
| – | 0.68 µM | CCCc1nc(-c2c(F)c(F)c(F)c(F)c2F)c(CO)n1Cc1ccc(-c2ccccc2C(=O)O)cc1 [Example 124J] | – | – | < 3 mg/kg | < 30 mg/kg |
| – | 0.39 µM | CCCc1nc(C(F)(F)F)c(C=O)n1Cc1ccc(-c2ccccc2C(=O)O)cc1 [Example 140A] | – | – | – | < 30 mg/kg |
| – | 0.16 µM | CCCc1nc(C(F)(F)C(F)(F)F)c(C=O)n1Cc1ccc(-c2ccccc2C(=O)O)cc1 [Example 140B] | – | – | – | < 30 mg/kg |
| – | 0.02 µM | CCCc1nc(C(F)(F)F)c(C=O)n1Cc1ccc(-c2ccccc2-c2nnn[nH]2)cc1 [Example 140C] | – | – | < 3 mg/kg | < 30 mg/kg |
| – | 0.4 µM | CCCCc1nc(Br)c(C=O)n1Cc1ccc(-c2ccccc2C(=O)O)cc1 [Example 140D] | – | – | < 3 mg/kg | < 30 mg/kg |
| – | 0.033 µM | CCCCc1nc(Br)c(C=O)n1Cc1ccc(-c2ccccc2-c2nnn[nH]2)cc1 [Example 140E] | – | – | < 3 mg/kg | < 30 mg/kg |
| – | 0.2 µM | CCC=Cc1nc(C(F)(F)F)c(C=O)n1Cc1ccc(-c2ccccc2C(=O)O)cc1 [Example 140F] | – | – | < 3 mg/kg | < 30 mg/kg |
| – | 0.076 µM | CCCCc1nc(C(F)(F)F)c(C(=O)OC)n1Cc1ccc(-c2ccccc2-c2nnn[nH]2)cc1 [Example 140H] | – | – | < 3 mg/kg | < 30 mg/kg |
| 0.052 µM | – | CCCCc1nc(C(F)(F)F)c(C(=O)OCC)n1Cc1ccc(-c2ccccc2-c2nnn[nH]2)cc1 [Example 140I] | < 10 mg/kg | < 100 mg/kg | – | – |
| – | 0.027 µM | CCCCc1nc(C(F)(F)F)c(C(N)=O)n1Cc1ccc(-c2ccccc2-c2nnn[nH]2)cc1 [Example 140J] | – | – | < 3 mg/kg | < 30 mg/kg |
| – | 0.038 µM | CCCCc1nc(I)c(C=O)n1Cc1ccc(-c2ccccc2-c2nnn[nH]2)cc1 [Example 140K] | – | – | < 3 mg/kg | < 30 mg/kg |
| – | 5.7 µM | CCCCc1nc(Cl)c(C=O)n1Cc1cccc(-c2ccccc2-c2nnn[nH]2)c1 [Example 140L] | – | – | < 3 mg/kg | < 30 mg/kg |

The remaining lines, values behind:

| SMILES | IC50 (AII receptor; Table 25) | IC50 (AII receptor; Table 26) | minimal effective dose at 10 mg/kg (Renal Hypertensive Rats) | minimal effective dose at 100 mg/kg (Renal Hypertensive Rats) | minimal effective dose at 3 mg/kg (Renal Hypertensive Rats) | minimal effective dose at 30 mg/kg (Renal Hypertensive Rats) |
| --- | --- | --- | --- | --- | --- | --- |
| CCCCc1nc(CO)c(Cl)n1Cc1ccc(-c2ccccc2C(=O)O)cc1 [Example 95] | 1.2 µM | – | < 10 mg/kg | > 100 mg/kg | – | – |
| CCCCc1ncc(CO)n1Cc1ccc(-c2ccccc2C(=O)O)cc1 [Example 97] | 0.27 µM | – | < 10 mg/kg | > 100 mg/kg | – | – |
| CCCCc1nc(Cl)c(COC(C)C)n1Cc1ccc(-c2ccccc2C(=O)O)cc1 [Example 99] | 0.09 µM | – | < 10 mg/kg | < 100 mg/kg | – | – |
| CCCCc1nc(Br)c(CO)n1Cc1ccc(-c2ccccc2C(=O)O)cc1 [Example 100] | 0.09 µM | – | < 10 mg/kg | < 100 mg/kg | – | – |
| CCCCc1nc(I)c(CO)n1Cc1ccc(-c2ccccc2C(=O)O)cc1 [Example 102] | 0.061 µM | – | < 10 mg/kg | < 100 mg/kg | – | – |
| CCCCc1nc(CO)c(I)n1Cc1ccc(-c2ccccc2C(=O)O)cc1 [Example 105] | 0.68 µM | – | < 10 mg/kg | < 100 mg/kg | – | – |
| CCCCc1nc(Cl)c(CO)n1Cc1ccc(-c2cccc(C)c2C(=O)O)cc1 [Example 106] | 1.9 µM | – | < 10 mg/kg | < 100 mg/kg | – | – |
| CCCc1nc(Cl)c(CO)n1Cc1ccc(-c2ccccc2C(=O)O)cc1 [Example 108] | 0.16 µM | – | < 10 mg/kg | < 100 mg/kg | – | – |
| CCCCCc1nc(Cl)c(CO)n1Cc1ccc(-c2ccccc2C(=O)O)cc1 [Example 109] | 0.98 µM | – | < 10 mg/kg | < 100 mg/kg | – | – |
| CCCc1nc(Cl)c(C=O)n1Cc1ccc(-c2ccccc2-c2nnn[nH]2)cc1 [Example 114, 2-Propyl-4-chloro-1-[(2'-(1H-tetrazol-5-yl)biphenyl-4-yl)methyl]imidazole-5-carboxaldehyde] | 0.05 µM | – | < 10 mg/kg | < 100 mg/kg | – | – |
| CCCCc1nc(Cl)c(CC(=O)O)n1Cc1ccc(-c2ccccc2C(=O)O)cc1 [Example 115] | 0.43 µM | – | < 10 mg/kg | < 100 mg/kg | – | – |
| CCCCc1nc(Cl)c(C(C)C(=O)O)n1Cc1ccc(-c2ccccc2C(=O)O)cc1 (stereo not shown) [Example 116] | 0.26 µM | – | < 10 mg/kg | < 100 mg/kg | – | – |
| CCCCc1nc(CO)c([N+](=O)[O-])n1Cc1ccc(-c2ccccc2C(=O)O)cc1 [Example 117] | 0.89 µM | – | < 10 mg/kg | < 100 mg/kg | – | – |
| CCCCc1nc(CO)c(Cl)n1Cc1ccc(-c2ccccc2-c2nn[nH]n2)cc1 [Example 118] | 0.089 µM | – | < 10 mg/kg | < 100 mg/kg | – | – |
| CCCCSc1ncc(CO)n1Cc1ccc(-c2ccccc2C(=O)O)cc1 [Example 123] | 5.6 µM | – | < 10 mg/kg | > 100 mg/kg | – | – |
| CCCc1nc(C(F)(F)C(F)(F)C(F)(F)F)c(CO)n1Cc1ccc(-c2ccccc2C(=O)O)cc1 [Example 124G] | – | 0.074 µM | – | – | < 3 mg/kg | < 30 mg/kg |
| CCCc1nc(C(F)(F)C(F)(F)C(F)(F)C(F)(F)F)c(CO)n1Cc1ccc(-c2ccccc2C(=O)O)cc1 [Example 124H] | – | 0.29 µM | – | – | < 3 mg/kg | < 30 mg/kg |
| CCCc1nc(C(F)(F)C(F)(F)C(F)(F)C(F)(F)C(F)(F)C(F)(F)F)c(CO)n1Cc1ccc(-c2ccccc2C(=O)O)cc1 [Example 124I] | – | 2.5 µM | – | – | < 3 mg/kg | > 30 mg/kg |
| CCCc1nc(C(F)(F)C(F)(F)C(F)(F)F)c(CO)n1Cc1ccc(-c2ccccc2-c2nnn[nH]2)cc1 [Example 124K] | – | 0.013 µM | – | – | < 3 mg/kg | < 30 mg/kg |
| O=C(O)c1ccccc1-c1ccc(Cn2c(CO)cnc2SCC2CC2)cc1 [Example 124] | 1.8 µM | – | < 10 mg/kg | > 100 mg/kg | – | – |
| CCCCc1nc(Cl)c(C(=O)OC)n1Cc1ccc(-c2ccccc2C(=O)O)cc1 [Example 126, methyl 1-[(2'-carboxybiphenyl-4-yl)methyl]-2-butyl-4-chloroimidazole-5-carboxylate] | 0.34 µM | – | < 10 mg/kg | < 100 mg/kg | – | – |
| CCCCc1nc(Cl)c(C(N)=O)n1Cc1ccc(-c2ccccc2C(=O)O)cc1 [Example 127, 1-[(2'-carboxybiphenyl-4-yl)methyl]-2-butyl-4-chloroimidazole-5-carboxamide] | 0.15 µM | – | < 10 mg/kg | < 100 mg/kg | – | – |
| CCCCc1ncc(C=O)n1Cc1ccc(-c2ccccc2C(=O)O)cc1 [Example 130] | 0.47 µM | – | < 10 mg/kg | < 100 mg/kg | – | – |
| CCCCc1nc(Cl)c(C=O)n1Cc1ccc(-c2ccccc2-c2nnn[nH]2)cc1 [Example 132, 2-n-Butyl-4-chloro-1-[(2'-(1H-Tetrazol-5-yl)-biphenyl-4-yl)methyl]imidazole-5-carboxaldehyde] | 0.02 µM | – | < 10 mg/kg | < 100 mg/kg | – | – |
| CCCCc1nc(C(F)(F)F)c(C=O)n1Cc1ccc(-c2ccccc2-c2nnn[nH]2)cc1 [Example 133] | 0.036 µM | – | < 10 mg/kg | < 100 mg/kg | – | – |
| CCCCc1nc(Cl)c(C(=O)NC)n1Cc1ccc(-c2ccccc2C(=O)O)cc1 [Example 134] | 0.18 µM | – | < 10 mg/kg | < 100 mg/kg | – | – |
| CCCCc1nc(Cl)c(C(=O)N(C)C)n1Cc1ccc(-c2ccccc2C(=O)O)cc1 [Example 135] | 1.3 µM | – | < 10 mg/kg | < 100 mg/kg | – | – |
| CCC=Cc1nc(C(F)(F)F)c(CO)n1Cc1ccc(-c2ccccc2C(=O)O)cc1 [Example 137] | 0.053 µM | – | < 10 mg/kg | < 100 mg/kg | – | – |
